Assay results as given in ChEMBL document CHEMBL1150869, “Bombardolides: new antifungal and antibacterial gamma-lactones from the coprophilous fungus Bombardioidea anartia” (2001).

What was measured:
Format in all cases: functional
Settings in all cases: read-out: IZ
Candida albicans = experiment: Antimicrobial activity against Candida albicans ATCC 10231 at 200 ug/disk by standard disk diffusion method
Bacillus subtilis = experiment: Antimicrobial activity against Bacillus subtilis ATCC 6051 at 200 ug/disk by standard disk diffusion method
Staphylococcus aureus = experiment: Antimicrobial activity against Staphylococcus aureus ATCC 29213 at 200 ug/disk by standard disk diffusion method

Row | Structure (SMILES) | zone of inhibition at 200 µg/disc (Candida albicans) [mm] | zone of inhibition at 200 µg/disc (Bacillus subtilis) [mm] | zone of inhibition at 200 µg/disc (Staphylococcus aureus) [mm]
1 | CCCC1C=C(/C=C/CO)C(=O)O1 (centres undefined) [BOMBARDOLIDE D] | 20 | – | –
2 | CC/C=C1/C=C(CCCO)C(=O)O1 [(E/Z)-BOMBARDOLIDE B] | – | 11 | –
3 | CC/C=C1C=C(/C=C/C(=O)O)C(=O)O/1 | – | 26 | 18
4 | CCCCC(O)c1cccc(O)c1 (centres undefined) | – | 12 | 19
5 | CC/C=C1C=C(/C=C/CO)C(=O)O/1 | 35 | 19 | 14
